Experiment [1] addresses T1, surface-expressing mutant TPC2 channel (TPC2^LL/AA) in HEK293 cells (Homo sapiens, UniProt Q8NHX9, L11A/L12A).
T1 construct: expressed in transfected cells; host or cells: HEK293
The experiment in a line: Whole-cell recordings of ITPC2-LL/AA. Type of experiment: cell-based. Particulars: for current density: whole cell recordings, individual recordings. The source says: We therefore characterized the responses of TPC2 channels to TCAs in detail using electrophysiological methods. We first performed whole-cell recordings in HEK293 cells that were transfected with surface-expressed TPC2 mutant channels (TPC2-L^11L^12-AA; abbreviated as TPC2^LL/AA hereafter).
All TPC1 and TPC2 mutants were generated with a site-directed mutagenesis kit (Qiagen) using EGFP- human TPC1 and TPC2 as the templates. All constructs were confirmed by DNA sequencing.
Cells were transfected with Lipofectamine 2000 (Invitrogen). After culture media were refreshed 18–24 hr post-transfection, cells were used for the electrophysiological assays 24–36 hr post-transfection.
All bath solutions were applied via a perfusion system that allowed complete solution exchange within a few seconds. […] Whole-cell currents were digitized at 10 kHz and filtered at 2 kHz.

The target in a further experiment is T2, hTPC2 (Homo sapiens, UniProt Q8NHX9).
T2 construct: expressed in transfected cells; host or cells: Cos1 and HEK293
T2 sequence (Q8NHX9 whole entry): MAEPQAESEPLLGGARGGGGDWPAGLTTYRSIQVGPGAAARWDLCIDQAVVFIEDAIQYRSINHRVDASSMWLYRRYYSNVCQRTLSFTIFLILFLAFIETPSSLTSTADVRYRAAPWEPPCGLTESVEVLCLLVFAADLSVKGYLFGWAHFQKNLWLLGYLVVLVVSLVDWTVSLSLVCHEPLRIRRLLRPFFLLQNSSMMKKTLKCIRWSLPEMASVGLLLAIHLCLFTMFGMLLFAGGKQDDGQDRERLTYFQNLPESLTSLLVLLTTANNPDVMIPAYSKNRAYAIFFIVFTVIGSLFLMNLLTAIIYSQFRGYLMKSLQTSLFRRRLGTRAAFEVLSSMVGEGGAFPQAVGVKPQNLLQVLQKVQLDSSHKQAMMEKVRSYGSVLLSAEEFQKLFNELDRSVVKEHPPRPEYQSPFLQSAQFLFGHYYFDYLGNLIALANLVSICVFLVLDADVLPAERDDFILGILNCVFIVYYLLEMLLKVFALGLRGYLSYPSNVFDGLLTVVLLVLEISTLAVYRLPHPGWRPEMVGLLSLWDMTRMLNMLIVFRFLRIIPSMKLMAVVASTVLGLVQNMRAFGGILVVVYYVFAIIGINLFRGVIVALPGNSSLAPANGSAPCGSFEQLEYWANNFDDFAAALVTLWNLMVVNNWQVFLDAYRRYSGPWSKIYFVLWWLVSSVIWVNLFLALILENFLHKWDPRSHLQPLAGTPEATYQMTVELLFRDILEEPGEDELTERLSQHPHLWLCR
In words: Whole-endolysosome recordings of ITPC2. The settings on record: whole endolysosome recordings with 100 µM of LyNa-VAs at −120 mV. Type of experiment: biochemical.

Our source for the current density, EC50 and ITPC2 values is publication PMC6905855, “Agonist-specific voltage-dependent gating of lysosomal two-pore Na^+ channels” (eLife, 2019).

“And” between values parts separate entries of the source, which are not always exact repeats. Equal values may be shown once.

T1 sequence (Q8NHX9 whole entry L11A/L12A): as the sequence (Q8NHX9 whole entry) above, with L11A, L12A counted along it

Regarding `CNCCC=C1c2ccccc2CCc2ccccc21` [LyNa-VA1.5, Nortriptyline], the current density is 7.1 pA/pF and 35.8727 pA/pF and 7.336 pA/pF and 16.5636 pA/pF in experiment [1] (10 µM); 6.773 pA/pF and 73.7727 pA/pF and 24.3182 pA/pF in experiment [1] (20 µM); 14.0091 pA/pF and 121.209 pA/pF and 89.9 pA/pF in experiment [1] (50 µM); 57.6545 pA/pF and 164.355 pA/pF and 160.345 pA/pF and 75.7909 pA/pF in experiment [1] (100 µM); 154.282 pA/pF and 191.036 pA/pF and 204.236 pA/pF and 114.582 pA/pF in experiment [1] (200 µM); 180.164 pA/pF in experiment [1] (400 µM). The EC50 in experiment [1] (whole-cell recordings at −140 mV, TPC2^LL/AA-transfected HEK293 cells, read-out: EC50) was found to be 52 ± 10 µM. The same molecule showed an ITPC2 at hTPC2 of 1916 ± 361 pA.
